This note sets out measurements from patent US11912683B1 (priority 2023, dated 2024).

Converted amounts (≈) assume the structure as drawn.

This assay deals with multidrug-resistant (MDR) strains of Mycobacterium tuberculosis. The assay can be described thus: microbe, parasite or virus in culture. Particulars: 192 h, read-out: Anti-tubercular activity against Mycobacterium tuberculosis MDR (MIC). The class given is cell-based.
For the compound `CC1=C(C(=O)N2CCCCC2)C(c2ccccc2)NC(=S)N1` (stereo not shown) [DHPM-KN1, (6-Methyl-4-phenyl-2-thioxo-1,2,3,4-tetrahydropyrimidin-5-yl)(piperidin-1-yl)methanone], the MIC came out at 64 µg/mL (≈ 203 µM).
To `COC(=O)C1=C(C)NC(=O)NC1c1ccc([N+](=O)[O-])cc1[N+](=O)[O-]` (stereo not shown) [DHPM-KN4, Methyl 4-(2,4-dinitrophenyl)-6-methyl-2-oxo-1,2,3,4-tetrahydropyrimidine-5-carboxylate] belongs 64 µg/mL (≈ 190 µM).
To `CC1=C(C(=O)N2CCCCC2)C(c2ccc([N+](=O)[O-])cc2)NC(=S)N1` (stereo not shown) [DHPM-KN5, (6-Methyl-4-(4-nitrophenyl)-2-thioxo-1,2,3,4-tetrahydropyrimidin-5-yl)(piperidin-1-yl)methanone] belongs 32 µg/mL (≈ 88.8 µM).
Turning to `CC1=C(C(=O)N2CCCCC2)C(c2ccc(Br)cc2)NC(=S)N1` (stereo not shown) [DHPM-KN6, (4-(4-Bromophenyl)-6-methyl-2-thioxo-1,2,3,4-tetrahydropyrimidin-5-yl)(piperidin-1-yl)methanone], the MIC came to 128 µg/mL (≈ 325 µM).
To `COc1ccc(C2NC(=S)NC(C)=C2C(=O)N2CCCCC2)cc1` (stereo not shown) [DHPM-KN7, (4-(4-Methoxyphenyl)-6-methyl-2-thioxo-1,2,3,4-tetrahydropyrimidin-5-yl)(piperidin-1-yl)methanone] belongs 256 µg/mL (≈ 741 µM); to `CC1=C(C(=O)N2CCCCC2)C(c2ccccc2C)NC(=S)N1` (stereo not shown) [DHPM-KN8, (6-Methyl-2-thioxo-4-(o-tolyl)-1,2,3,4-tetrahydropyrimidin-5-yl)(piperidin-1-yl)methanone], 256 µg/mL (≈ 777 µM); to `CC1=C(C(=O)N2CCCCC2)C(c2ccc(C(F)(F)F)cc2)NC(=S)N1` (stereo not shown) [DHPM-KN10, (6-Methyl-2-thioxo-4-(4-(trifluoromethyl)phenyl)-1,2,3,4-tetrahydropyrimidin-5-yl)(piperidin-1-yl)methanone], 256 µg/mL (≈ 668 µM).
